Results on seven compounds are retold here after ChEMBL document CHEMBL1201862, “PubChem BioAssay data set” (2004).

Activity calls are given as the source filed them.

Experiment [1] in a line: Trypanosoma cruzi growth suppression in host cells – NIH3T3 host cells, beta-gal luminescence, confirmation (AID 2044).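 Also: intracellular parasites grown in NIH/3T3 mouse fibroblasts as host cells; luminescent beta-galactosidase reporter signal from transgenic T. cruzi replicating inside host cells; inhibitors lower the luminescence signal.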 Type of experiment: functional, cell-based.
Experiment [2] addresses Female germline-specific tumor suppressor gld-1 (Caenorhabditis elegans, UniProt Q17339). Kind of experiment: blockers of GLD-1/TGE RNA complex formation – biochemical, fluorescence polarization, C. elegans, dose response (AID 2802). (In general: In fluorescence polarisation assays a small probe gives low polarisation when free and higher when bound to something large.)
The target of a further experiment is T1, Bcl-2-related protein A1 (Mus musculus, UniProt Q07440).
T1 sequence (Q07440 whole entry): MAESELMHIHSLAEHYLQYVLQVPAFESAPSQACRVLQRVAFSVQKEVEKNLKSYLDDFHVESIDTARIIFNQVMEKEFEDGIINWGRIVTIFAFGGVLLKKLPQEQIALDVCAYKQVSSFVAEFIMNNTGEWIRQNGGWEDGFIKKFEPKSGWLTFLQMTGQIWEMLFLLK
Kind of experiment: displacement of Bid BH3 peptide from Bfl-1 – biochemical, fluorescence polarization, FITC-Bid, mouse, primary screen (AID 432).

Experiment [3] can be described thus: viability of PTEN-deleted HCT116 cells – cell-based, HCT116 PTEN knockout, dose response (AID 1047).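 Also: HCT116 colon tumor cells with PTEN knocked out; cells exposed to compound for 60 hours before readout; potency for loss of cell viability measured by luminescence.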 Format: functional.
Experiment [4] in a line: luciferase reporter signal suppression in cells – H4 neuroglioma cells, luminescence, dose response (AID 1990). Type of experiment: functional, cell-based.
Experiment [5] in a line: Luminescence Cell-Based Dose Response HTS to Identify Inhibitors of 5'UTR Stem-Loop Driven Prion Protein mRNA Translation in H4 Neuroglioblastoma Cells. [Related pubchem assays: 1827 (Project Summary), 1813 (Primary HTS)]. Format: functional.
For experiment [6], the target named is T2, Histone-lysine N-methyltransferase NSD2 (Homo sapiens, UniProt O96028).
T2 sequence (O96028 whole entry): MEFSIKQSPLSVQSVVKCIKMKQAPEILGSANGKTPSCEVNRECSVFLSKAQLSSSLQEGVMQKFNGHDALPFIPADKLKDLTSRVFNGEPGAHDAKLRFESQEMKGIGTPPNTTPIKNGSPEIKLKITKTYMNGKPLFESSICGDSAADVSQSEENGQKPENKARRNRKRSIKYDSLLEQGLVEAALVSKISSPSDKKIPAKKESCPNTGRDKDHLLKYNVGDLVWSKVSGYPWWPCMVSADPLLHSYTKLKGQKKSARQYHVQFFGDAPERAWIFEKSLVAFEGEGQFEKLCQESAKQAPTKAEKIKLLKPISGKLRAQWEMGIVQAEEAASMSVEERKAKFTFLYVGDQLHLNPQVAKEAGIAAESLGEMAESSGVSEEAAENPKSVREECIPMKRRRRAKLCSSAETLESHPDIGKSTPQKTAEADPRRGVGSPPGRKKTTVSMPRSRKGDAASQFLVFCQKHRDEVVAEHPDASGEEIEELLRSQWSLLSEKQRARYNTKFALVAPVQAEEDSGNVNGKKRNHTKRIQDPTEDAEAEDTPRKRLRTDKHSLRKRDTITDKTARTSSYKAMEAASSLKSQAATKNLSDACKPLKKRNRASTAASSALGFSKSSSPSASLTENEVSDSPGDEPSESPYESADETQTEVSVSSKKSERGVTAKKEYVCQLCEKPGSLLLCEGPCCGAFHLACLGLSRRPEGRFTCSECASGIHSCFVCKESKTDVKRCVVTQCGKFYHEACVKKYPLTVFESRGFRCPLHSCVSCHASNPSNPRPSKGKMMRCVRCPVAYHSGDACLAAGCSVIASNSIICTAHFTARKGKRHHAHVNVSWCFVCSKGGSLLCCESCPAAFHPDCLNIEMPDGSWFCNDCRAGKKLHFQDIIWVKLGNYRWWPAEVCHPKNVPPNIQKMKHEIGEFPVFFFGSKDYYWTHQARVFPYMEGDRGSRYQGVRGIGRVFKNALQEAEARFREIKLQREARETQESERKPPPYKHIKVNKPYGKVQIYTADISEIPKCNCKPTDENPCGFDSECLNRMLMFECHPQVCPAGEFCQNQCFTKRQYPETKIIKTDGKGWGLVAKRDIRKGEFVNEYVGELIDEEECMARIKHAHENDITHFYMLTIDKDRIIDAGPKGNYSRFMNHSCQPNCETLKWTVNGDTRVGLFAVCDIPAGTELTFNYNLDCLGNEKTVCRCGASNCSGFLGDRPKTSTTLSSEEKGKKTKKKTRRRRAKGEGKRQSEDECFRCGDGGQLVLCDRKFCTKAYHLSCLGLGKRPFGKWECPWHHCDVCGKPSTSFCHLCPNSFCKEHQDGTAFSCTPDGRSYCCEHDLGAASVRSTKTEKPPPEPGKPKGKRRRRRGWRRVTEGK
Type of experiment: biochemical.

Experiment [7] is described as follows: HIV-1 AD8 envelope cell-cell fusion blockers – cherry-pick, dose response (AID 652062).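 Also: luciferase signal from cell-cell fusion driven by HIV-1 clade B AD8 Env; potency is for inhibitors of fusion seen as a drop in luminescence.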 Format: functional, cell-based.
Experiment [8] in a line: blockers of HIV-1 ZM109 envelope-driven cell-cell fusion – HeLa effector, CEM target cells, luciferase, cherry-pick, dose response (AID 652058).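 Also: luciferase signal from HIV-1 Env mediated cell-cell fusion of effector and target cells.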 Type of experiment: functional, cell-based.
A short description of experiment [9]: general cell-killing toxicity readout – plate reader, dry powder samples, cytotoxicity control for PAX8 inhibitor project, dose response (AID 743021). Format: functional, cell-based.
For experiment [10], the target named is Serine/threonine-protein kinase 17A (Homo sapiens, UniProt Q9UEE5). Type of experiment: functional.
For experiment [11], the target named is Cyclin-dependent kinase 1 (Homo sapiens, UniProt P06493). Type of experiment: functional.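 Also: Kinome-wide panel profiling, with the target listed as panel member CDC2.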
In experiment [12] the target is Interleukin-1 receptor-associated kinase 1 (Homo sapiens, UniProt P51617). Type of experiment: functional.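 Also: IRAK1 tested as one member of a kinome panel.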
The target in experiment [13] is Tyrosine-protein kinase JAK2 (Homo sapiens, UniProt O60674). Type of experiment: functional.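 Also: JAK2 tested as one member of a kinase panel.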
The next experiment concerns the target Activated CDC42 kinase 1 (Homo sapiens, UniProt Q07912). In words: Navigating the Kinome. Panel member name: ACK1. Type of experiment: functional.
The target of experiment [14] is Rho-associated protein kinase 1 (Homo sapiens, UniProt Q13464). Type of experiment: functional.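 Also: measured within a broad kinome-wide panel profiling many kinases.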
The target in experiment [15] is Calcium/calmodulin-dependent protein kinase type II subunit delta (Homo sapiens, UniProt Q13557). Format: functional.
The target of experiment [16] is Protein-tyrosine kinase 6 (Homo sapiens, UniProt Q13882). Format: functional.
For experiment [17], the target named is Mitogen-activated protein kinase 1 (Homo sapiens, UniProt P28482). Type of experiment: functional.
Experiment [18] concerns the target Protein kinase C theta type (Homo sapiens, UniProt Q04759). Kind of experiment: Navigating the Kinome. Panel member name: PRKCQ. Type of experiment: functional.
The next experiment concerns the target Beta-galactosidase (Escherichia coli, UniProt Q8VNN2). Kind of experiment: detection-enzyme interference by beta-gal modulators – biochemical, E. coli enzyme, set 3, artefact control for CCR6 antagonist project, dose response (AID 504712). Type of experiment: functional.

Calcium/calmodulin-dependent protein kinase type II subunit delta, sequence (Q13557 whole entry): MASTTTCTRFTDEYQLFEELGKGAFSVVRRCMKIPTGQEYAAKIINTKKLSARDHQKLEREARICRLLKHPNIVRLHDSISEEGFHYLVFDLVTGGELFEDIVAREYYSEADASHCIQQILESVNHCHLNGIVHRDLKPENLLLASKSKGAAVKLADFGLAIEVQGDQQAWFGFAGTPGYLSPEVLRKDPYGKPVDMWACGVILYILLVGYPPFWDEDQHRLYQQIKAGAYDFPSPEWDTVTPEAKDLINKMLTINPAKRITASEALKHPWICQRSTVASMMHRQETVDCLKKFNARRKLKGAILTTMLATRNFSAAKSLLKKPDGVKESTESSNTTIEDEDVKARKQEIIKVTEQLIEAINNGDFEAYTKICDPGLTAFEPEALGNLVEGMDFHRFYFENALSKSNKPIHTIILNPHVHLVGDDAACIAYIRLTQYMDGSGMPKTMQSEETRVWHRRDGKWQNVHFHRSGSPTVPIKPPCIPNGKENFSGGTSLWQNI
Tyrosine-protein kinase JAK2, sequence (O60674 whole entry): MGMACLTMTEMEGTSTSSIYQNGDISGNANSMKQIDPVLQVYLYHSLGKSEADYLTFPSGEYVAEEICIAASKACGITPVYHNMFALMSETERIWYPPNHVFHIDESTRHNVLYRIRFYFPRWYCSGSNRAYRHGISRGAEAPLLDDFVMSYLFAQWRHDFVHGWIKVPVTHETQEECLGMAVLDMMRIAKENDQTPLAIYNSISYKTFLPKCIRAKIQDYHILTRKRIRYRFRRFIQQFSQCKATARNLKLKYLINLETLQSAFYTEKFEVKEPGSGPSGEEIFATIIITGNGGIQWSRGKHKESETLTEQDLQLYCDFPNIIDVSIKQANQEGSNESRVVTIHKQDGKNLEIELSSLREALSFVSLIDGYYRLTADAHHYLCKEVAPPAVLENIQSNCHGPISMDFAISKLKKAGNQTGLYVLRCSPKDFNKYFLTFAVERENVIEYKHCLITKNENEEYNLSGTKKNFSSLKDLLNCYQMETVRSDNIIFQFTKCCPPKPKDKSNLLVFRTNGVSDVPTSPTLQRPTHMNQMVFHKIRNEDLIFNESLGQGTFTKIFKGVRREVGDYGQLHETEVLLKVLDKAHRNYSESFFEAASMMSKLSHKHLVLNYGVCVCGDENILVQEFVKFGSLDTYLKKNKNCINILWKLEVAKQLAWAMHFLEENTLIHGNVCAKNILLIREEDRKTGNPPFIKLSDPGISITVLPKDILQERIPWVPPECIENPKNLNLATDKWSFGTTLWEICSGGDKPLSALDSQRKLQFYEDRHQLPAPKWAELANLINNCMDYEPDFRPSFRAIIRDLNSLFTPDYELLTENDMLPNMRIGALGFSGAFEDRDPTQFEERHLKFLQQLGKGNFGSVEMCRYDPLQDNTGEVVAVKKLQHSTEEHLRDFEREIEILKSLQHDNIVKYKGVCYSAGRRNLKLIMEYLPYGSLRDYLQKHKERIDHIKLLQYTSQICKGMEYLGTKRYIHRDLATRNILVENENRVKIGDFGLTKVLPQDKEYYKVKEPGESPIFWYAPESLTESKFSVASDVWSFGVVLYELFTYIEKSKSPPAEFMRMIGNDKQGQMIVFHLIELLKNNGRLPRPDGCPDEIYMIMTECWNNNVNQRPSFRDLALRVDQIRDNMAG
Rho-associated protein kinase 1, sequence (Q13464 whole entry): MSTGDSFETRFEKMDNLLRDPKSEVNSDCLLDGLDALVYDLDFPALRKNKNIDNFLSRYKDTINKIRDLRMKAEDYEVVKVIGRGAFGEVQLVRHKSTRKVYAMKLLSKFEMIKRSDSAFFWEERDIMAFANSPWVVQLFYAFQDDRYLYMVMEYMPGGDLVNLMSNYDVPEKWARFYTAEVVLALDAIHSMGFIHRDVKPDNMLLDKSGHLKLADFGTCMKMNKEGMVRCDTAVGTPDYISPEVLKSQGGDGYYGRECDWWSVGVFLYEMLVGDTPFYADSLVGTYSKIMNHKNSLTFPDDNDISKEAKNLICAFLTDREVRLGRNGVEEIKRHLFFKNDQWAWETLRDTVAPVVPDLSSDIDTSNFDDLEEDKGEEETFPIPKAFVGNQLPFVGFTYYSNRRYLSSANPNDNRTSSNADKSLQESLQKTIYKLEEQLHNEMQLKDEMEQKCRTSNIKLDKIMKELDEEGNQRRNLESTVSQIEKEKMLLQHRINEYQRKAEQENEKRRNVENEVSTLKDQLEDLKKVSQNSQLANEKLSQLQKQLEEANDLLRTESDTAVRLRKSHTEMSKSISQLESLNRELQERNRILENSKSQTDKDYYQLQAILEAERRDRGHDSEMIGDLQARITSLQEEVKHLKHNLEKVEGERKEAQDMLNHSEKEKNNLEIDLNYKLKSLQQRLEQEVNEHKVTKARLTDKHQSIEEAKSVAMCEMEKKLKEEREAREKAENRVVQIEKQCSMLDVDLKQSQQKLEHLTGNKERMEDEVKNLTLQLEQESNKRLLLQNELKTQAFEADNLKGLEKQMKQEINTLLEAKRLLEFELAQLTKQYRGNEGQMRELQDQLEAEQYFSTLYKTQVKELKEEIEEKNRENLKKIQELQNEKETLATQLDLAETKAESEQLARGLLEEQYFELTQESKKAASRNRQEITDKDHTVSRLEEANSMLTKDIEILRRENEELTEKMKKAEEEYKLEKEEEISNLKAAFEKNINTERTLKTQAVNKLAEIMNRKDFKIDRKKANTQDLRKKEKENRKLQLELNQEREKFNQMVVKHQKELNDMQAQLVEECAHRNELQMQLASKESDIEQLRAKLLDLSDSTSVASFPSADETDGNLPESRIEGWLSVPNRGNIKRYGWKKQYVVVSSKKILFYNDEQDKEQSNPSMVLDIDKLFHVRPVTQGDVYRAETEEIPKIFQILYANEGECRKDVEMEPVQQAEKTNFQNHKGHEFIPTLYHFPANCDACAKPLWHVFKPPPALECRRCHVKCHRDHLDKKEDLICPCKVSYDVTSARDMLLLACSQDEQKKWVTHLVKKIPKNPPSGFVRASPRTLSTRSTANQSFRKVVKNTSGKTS
Protein-tyrosine kinase 6, sequence (Q13882 whole entry): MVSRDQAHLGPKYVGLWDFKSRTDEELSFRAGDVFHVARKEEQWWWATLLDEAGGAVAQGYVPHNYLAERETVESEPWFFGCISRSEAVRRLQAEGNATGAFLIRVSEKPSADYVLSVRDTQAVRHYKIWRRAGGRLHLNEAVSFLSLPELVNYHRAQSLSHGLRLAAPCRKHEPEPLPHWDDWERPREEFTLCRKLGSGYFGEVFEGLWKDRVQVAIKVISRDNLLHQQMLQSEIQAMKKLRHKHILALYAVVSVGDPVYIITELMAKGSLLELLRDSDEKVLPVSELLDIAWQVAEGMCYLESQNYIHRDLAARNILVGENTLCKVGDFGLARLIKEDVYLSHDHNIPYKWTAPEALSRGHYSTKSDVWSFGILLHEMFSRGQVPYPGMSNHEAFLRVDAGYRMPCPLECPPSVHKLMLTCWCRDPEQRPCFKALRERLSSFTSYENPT
Cyclin-dependent kinase 1, sequence (P06493 whole entry): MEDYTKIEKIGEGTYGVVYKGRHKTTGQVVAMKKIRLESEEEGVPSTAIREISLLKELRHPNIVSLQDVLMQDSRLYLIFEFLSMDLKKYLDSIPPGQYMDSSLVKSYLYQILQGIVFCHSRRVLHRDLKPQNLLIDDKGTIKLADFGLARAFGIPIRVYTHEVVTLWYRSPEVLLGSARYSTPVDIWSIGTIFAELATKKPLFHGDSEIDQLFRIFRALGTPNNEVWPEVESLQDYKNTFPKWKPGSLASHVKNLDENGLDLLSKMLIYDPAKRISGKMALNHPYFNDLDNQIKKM
Mitogen-activated protein kinase 1, sequence (P28482 whole entry): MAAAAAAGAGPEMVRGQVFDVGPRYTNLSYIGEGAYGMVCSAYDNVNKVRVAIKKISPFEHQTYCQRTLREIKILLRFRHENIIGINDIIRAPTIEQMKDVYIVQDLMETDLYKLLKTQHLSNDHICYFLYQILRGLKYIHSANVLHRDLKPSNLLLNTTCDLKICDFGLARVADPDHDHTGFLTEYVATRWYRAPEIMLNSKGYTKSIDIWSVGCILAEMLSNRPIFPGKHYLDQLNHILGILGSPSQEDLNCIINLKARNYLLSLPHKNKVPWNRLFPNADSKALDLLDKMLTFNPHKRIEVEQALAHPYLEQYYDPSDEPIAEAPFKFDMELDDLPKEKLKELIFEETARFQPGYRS
Serine/threonine-protein kinase 17A, sequence (Q9UEE5 whole entry): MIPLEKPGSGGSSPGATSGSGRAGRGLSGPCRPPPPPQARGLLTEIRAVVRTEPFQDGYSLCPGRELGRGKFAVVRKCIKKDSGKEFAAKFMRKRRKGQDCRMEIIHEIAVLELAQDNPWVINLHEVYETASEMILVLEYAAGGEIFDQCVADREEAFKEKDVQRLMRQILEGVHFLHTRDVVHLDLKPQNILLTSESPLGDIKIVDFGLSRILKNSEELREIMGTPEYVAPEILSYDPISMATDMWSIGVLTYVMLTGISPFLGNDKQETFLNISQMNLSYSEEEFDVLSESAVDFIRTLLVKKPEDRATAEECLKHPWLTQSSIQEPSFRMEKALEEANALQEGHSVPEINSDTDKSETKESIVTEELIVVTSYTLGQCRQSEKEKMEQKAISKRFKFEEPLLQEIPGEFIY
Female germline-specific tumor suppressor gld-1, sequence (Q17339 whole entry): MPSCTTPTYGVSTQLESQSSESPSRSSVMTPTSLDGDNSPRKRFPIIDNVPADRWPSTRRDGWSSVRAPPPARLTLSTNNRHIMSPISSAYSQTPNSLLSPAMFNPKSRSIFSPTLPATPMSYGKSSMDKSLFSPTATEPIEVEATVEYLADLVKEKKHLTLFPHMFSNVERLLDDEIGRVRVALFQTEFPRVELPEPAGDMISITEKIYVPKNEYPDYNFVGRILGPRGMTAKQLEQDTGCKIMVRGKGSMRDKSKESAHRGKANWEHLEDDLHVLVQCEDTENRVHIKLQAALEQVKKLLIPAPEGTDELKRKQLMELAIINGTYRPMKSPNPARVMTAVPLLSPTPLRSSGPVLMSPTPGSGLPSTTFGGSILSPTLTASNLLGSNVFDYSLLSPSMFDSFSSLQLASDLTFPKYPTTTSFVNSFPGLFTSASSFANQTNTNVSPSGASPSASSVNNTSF

What is called EC50 is the concentration that produces a half-maximal response. Take `O=C(O)c1ccc(NC2=C(Cl)C(=O)c3ccccc3C2=O)cc1`: in experiment [1], the EC50 is 2.74 µM (active).

One may read the IC50 as the concentration needed to halve the response being measured. As to `O=C(O)c1ccc2c3c(ncnc13)-c1ccccc1C2=O`, the results for the IC50 (in experiment [2]; on Bcl-2-related protein A1) were 3.51 µM (active) and > 100 µM (not active), respectively. In addition, the values for the concentration for a half-maximal effect (EC50) in experiment [3], in experiment [4] and in experiment [5] were 16.1 µM (active), 2.48 µM (active) and 1.32 µM (active), respectively.

For orientation: AC50 means the midpoint of the concentration-response curve, whichever way the signal moves. Turning to `CCOC(=O)c1c2c(n(Cc3ccccc3)c1C)C(=O)C(=O)c1ccccc1-2`, the AC50 in experiment [6] is 0.263 µM (active); in experiment [7], 10.6 µM (active); in experiment [8] it was 10.9 µM (active); in [9], 15.7 µM (active).

What is called Ki is the equilibrium dissociation constant of an inhibitor or competing ligand from its target. Consider `Cc1ccc2nccc(NC(=O)Nc3cccc(C(F)(F)F)n3)c2c1`, for which the Ki is > 3.98 µM (inactive) in experiment [10]; 0.501 µM (active) in [11]; > 7.94 µM (inactive) in experiment [12]; > 2 µM (inactive) in experiment [13]; > 3.98 µM (inactive) at Activated CDC42 kinase 1; > 6.31 µM (inactive) in [14]. Further, the Ki in experiment [15] is > 6.31 µM (inactive); in experiment [16], 0.398 µM (active); in experiment [17], > 7.94 µM (inactive).

`Cc1nn(C)c2sc3c(=O)[nH]cnc3c12`: the Ki in [18] is 79.4 µM (active).

On to `Cc1c(/N=C2\C=CC(=O)c3ccccc32)c(=O)n(-c2ccccc2)n1C`, for which the AC50 in experiment [6] was 2.43 µM (active). The IC50 at Beta-galactosidase is > 66.6 µM (inactive).

On to `COc1cc2c(cc1F)C(c1ccccc1Cl)=Nc1c(n[nH]c1C)N2` [RG-1530], for which the figures for the Ki in experiment [13], in experiment [14] and in experiment [15] were 0.126 µM (active), > 2.51 µM (inactive) and > 6.31 µM (inactive), respectively.
